The values below come from patent US9200082B2, “Methods and compositions involving fibrillizing polypeptides for nanofibers” (The University of Chicago, priority 2013, dated 2015).

The subject of test [1] is Q11 microgels. The test can be described thus: Q11 microgel fluorescence microscopy. How it is done: Lyophilized Q11 was dissolved in deionized water at a final concentration of 10 mM by vortexing for 5 min. Aqueous Q11 solutions were diluted 10-fold with 1×PBS containing GFP (Vector Labs cat# MB-0752), βTmutant-GFP, or one or more βTail fusion proteins at a total protein concentration between 0.25-1.5 μM, or tryptophan-terminated βTail (W-βTail) at a concentration between 10-100 μM. These solutions were then incubated under static conditions for nanofiber assembly, or on a LabNet Rocker 35 rocker table (speed setting 4) (New Jersey) to induce microgel formation.
Q11 microgel fluorescence was analyzed using a Zeiss Axioscope inverted epifluorescent microscope. Dapi filters were used to visualize βTail-GFPuv; FITC filters were used to visualize βTail-eGFP; and TRITC filters were used to visualize βTail-dsRED. Fluorescence emission of any protein with the inappropriate filter (e.g. βTail-GFPuv with FITC) was negligible (FIG. 5). Due to differences in the quantum efficiency of each protein, exposure time was adjusted until the grayscale image intensity of microgels containing 0.33 μM βTail-GFP, βTail-eGFP, or βTail-dsRED alone was similar (e.g. 0.75 sec for βTail-GFP, 1.5 sec for βTail-eGFP, and 2.5 sec for βTail-dsRED). […]

Test [2] concerns C57BL/6 mice. The test can be described thus: Immunization, anti-GFP Ig isotyping ELISA. The test is classed as in vivo. To be noted: after primary and booster immunizations, serum week 7. How it is done: Q11 microgels bearing βTail-GFP or βTail-cut were prepared as described above, except the materials were incubated at 4 deg C., rather than room temperature. GFP content in the microgels was analyzed fluorimetrically as described above, and the concentration of GFP in the microgels was used as the basis for βTail-GFP dose in the PBS group. Similarly, cutinase content in the microgels was analyzed with the μABCA assay kit (Pierce), according to the manufacturer's instructions, and βTail-cut dose in the microgels was used as the basis for βTail-cut dose in PBS group. Endotoxin content of all vaccines was analyzed with the Limulus Amoebocyte Lysate assay kit (Lonza) according to the manufacturer's instructions immediately before immunization, and all materials were below the upper limit of 1 EU/mL. Female C57BL/6 mice (6-8 weeks old, Taconic Farms, Ind.) were each given two 50 μL subcutaneous injections near the shoulder blades for each primary and booster immunization, similar to previously reported methods (Hudalla 2013). […]
For all isotyping ELISAs, following overnight coating with 1 μg/mL βTmutant-GFP in PBS or PBS, all plates were washed 3 times with 0.5% Tween-20 in PBS. […] Absorbance was then measured at 450 nm with a SpectraMax M5 plate reader.
Background: ELISA stands for enzyme-linked immunosorbent assay.

Turning to “βTail-GFP: recombinant fusion of βTail, Gly-Ser linker, GFPuv and His6 expressed in E. coli; SEQ ID NO. 65”, in test [1], the “fluorescence (activity) after integration into Q11 nanofibers” value is “fluorescence was not perturbed when integrated into Q11 nanofibers”. Besides, in test [2], the “serum Ig isotype profile” value is “a more balanced IgM/IgG1 isotype profile”.
